Measurements taken from ChEMBL document CHEMBL4680205, “Multifunctional 6-fluoro-3-[3-(pyrrolidin-1-yl)propyl]-1,2-benzoxazoles targeting behavioral and psychological symptoms of dementia (BPSD)” (Eur J Med Chem, 2020).
One block for each molecule: values may come before it.

What was measured:
[1] = target: T1, Alpha-2C adrenergic receptor (Homo sapiens, UniProt P18825); assay: Antagonist activity at recombinant human adrenergic receptor alpha2c expressed in CHO-K1 cells assessed inhibition of epinephrine-induced cAMP accumulation measured after 10 mins by HTRF assay; type: cell-based; conditions: cho-k1, 10 min
T1 sequence (P18825 whole entry): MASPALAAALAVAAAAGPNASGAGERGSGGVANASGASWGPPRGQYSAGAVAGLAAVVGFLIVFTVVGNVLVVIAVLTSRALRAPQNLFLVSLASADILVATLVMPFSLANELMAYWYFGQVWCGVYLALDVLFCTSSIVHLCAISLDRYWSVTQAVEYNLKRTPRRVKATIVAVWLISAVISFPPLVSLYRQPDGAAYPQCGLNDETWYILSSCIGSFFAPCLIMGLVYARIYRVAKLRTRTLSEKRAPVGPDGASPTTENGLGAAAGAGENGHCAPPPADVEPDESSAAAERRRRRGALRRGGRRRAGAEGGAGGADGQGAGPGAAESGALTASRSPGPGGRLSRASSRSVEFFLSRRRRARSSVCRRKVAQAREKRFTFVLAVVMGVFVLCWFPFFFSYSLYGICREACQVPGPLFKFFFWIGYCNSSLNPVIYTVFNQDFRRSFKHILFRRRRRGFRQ

[2] = mouse, in vivo, ip, 0.5 h
[3] = Psychoactive effect in ip dosed CD-1 mouse assessed as catalepsy effect measured after 30 to 120 mins by bar test; type: ADME, organism-based; conditions: in vivo, time 30-120 min
[4] = Sedative activity in ip dosed CD-1 mouse assessed as effect spontaneous locomotor activity measured at 5 mins interval for 120 mins; type: ADME, organism-based; conditions: in vivo, 2 h
[5] = Sedative activity in ip dosed Swiss albino mouse assessed as effect spontaneous locomotor activity measured during 2 to 6 mins of test; type: ADME, organism-based; conditions: in vivo, time 2-6 min
Mus musculus [6] = species on record: Mus musculus; assay: animal or person; conditions: CD-1, ip, 2 h, read-out: MED
Mus musculus [7] = species on record: Mus musculus; assay: animal or person; conditions: CD-1, ip, 2 h, read-out: MED; remark: listed apart in the source
Mus musculus [8] = species on record: Mus musculus; assay: animal or person; conditions: Swiss, ip, 0.1 h, read-out: MED
[9] = target: 5-hydroxytryptamine receptor 2A (Homo sapiens, UniProt P28223); type: cell membranes, CHO-K1, Membrane
Sequence of 5-hydroxytryptamine receptor 2A (P28223 whole entry): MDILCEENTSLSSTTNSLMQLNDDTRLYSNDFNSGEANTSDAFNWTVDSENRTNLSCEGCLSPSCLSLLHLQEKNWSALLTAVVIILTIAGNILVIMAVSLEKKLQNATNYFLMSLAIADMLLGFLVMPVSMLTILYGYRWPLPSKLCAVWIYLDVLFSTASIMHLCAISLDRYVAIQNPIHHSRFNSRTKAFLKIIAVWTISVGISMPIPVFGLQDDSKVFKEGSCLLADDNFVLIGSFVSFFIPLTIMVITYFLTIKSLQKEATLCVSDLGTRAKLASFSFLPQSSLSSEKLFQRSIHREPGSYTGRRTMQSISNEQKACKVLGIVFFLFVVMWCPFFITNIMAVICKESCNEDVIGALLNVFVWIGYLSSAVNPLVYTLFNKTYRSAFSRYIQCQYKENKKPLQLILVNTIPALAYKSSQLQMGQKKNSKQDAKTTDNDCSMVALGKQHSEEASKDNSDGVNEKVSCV

[10] = target: T2, 5-hydroxytryptamine receptor 7 (Homo sapiens, UniProt P34969); type: cell membranes, CHO-K1, Membrane
T2 sequence (P34969 whole entry): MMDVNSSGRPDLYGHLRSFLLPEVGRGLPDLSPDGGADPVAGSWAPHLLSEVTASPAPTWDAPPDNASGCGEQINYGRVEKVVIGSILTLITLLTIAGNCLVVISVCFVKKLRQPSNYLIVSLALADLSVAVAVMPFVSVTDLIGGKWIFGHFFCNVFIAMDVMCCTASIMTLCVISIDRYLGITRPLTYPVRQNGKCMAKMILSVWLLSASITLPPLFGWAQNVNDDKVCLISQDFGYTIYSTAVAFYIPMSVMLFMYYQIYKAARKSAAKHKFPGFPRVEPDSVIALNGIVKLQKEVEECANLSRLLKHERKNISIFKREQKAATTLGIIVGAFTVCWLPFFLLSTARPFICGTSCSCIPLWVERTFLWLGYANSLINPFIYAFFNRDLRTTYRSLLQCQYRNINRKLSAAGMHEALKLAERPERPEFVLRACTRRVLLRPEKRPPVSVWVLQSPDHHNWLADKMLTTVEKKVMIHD

[11] = target: T2, 5-hydroxytryptamine receptor 7; conditions: CHO-K1, filed as antagonist, time 1.0 hrs
[12] = target: T3, 5-hydroxytryptamine receptor 2C (Homo sapiens, UniProt P28335); assay: Antagonist activity at recombinant human 5HT2C receptor expressed in HEK293 cells assessed as inhibition of serotonin-induced inositol phosphate accumulation measured after 30 mins by HTRF assay; type: cell-based; conditions: hek293, 0.5 h
T3 sequence (P28335 whole entry): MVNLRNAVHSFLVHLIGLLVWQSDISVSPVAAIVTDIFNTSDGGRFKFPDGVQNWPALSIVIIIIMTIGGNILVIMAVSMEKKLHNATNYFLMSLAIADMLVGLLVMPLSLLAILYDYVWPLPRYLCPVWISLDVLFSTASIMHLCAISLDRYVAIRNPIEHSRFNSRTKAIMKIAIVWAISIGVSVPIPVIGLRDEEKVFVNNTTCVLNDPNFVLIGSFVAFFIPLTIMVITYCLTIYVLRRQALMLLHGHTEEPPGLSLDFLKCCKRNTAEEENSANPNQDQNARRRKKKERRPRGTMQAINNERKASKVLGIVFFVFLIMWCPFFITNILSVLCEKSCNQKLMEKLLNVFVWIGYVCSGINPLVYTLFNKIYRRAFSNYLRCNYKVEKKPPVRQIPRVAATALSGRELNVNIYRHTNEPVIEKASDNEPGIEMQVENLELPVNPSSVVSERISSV

[13] = target: D(2) dopamine receptor (Homo sapiens) (UniProt P14416); conditions: CHO-K1, filed as antagonist, time 15-31 min
Sequence of D(2) dopamine receptor (Homo sapiens) (P14416 whole entry): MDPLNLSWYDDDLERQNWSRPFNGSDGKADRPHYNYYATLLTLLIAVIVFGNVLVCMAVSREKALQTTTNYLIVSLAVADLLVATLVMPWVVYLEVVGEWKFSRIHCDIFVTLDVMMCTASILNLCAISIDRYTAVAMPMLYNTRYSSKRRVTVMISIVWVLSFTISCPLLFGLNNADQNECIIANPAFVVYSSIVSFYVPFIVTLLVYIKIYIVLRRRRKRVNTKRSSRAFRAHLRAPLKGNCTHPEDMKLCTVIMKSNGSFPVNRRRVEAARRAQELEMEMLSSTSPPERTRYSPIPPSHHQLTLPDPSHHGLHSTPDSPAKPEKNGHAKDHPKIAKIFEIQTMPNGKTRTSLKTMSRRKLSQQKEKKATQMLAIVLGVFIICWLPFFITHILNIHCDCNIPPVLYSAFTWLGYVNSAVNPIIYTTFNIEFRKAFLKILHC

- pKb [1]: 8.62
Structure (SMILES): COC(=O)[C@H]1[C@H]2C[C@H]3c4[nH]c5ccccc5c4CCN3C[C@H]2CC[C@@H]1O [RAUWOLSCINE]

- MED [2]: > 2.5 mg/kg
Structure (SMILES): O=C1CCc2ccc(OCCCCN3CCN(c4cccc(Cl)c4Cl)CC3)cc2N1 [ARIPIPRAZOLE]

Structure (SMILES): OCCOCCN1CCN(C2=Nc3ccccc3Sc3ccccc32)CC1 [QUETIAPINE]
- MED [3]: 30 mg/kg
- MED [4]: 10 mg/kg
- MED [5]: 10 mg/kg
- minimal effective dose (Mus musculus [6]): 5 mg/kg
- minimal effective dose (Mus musculus [7]): 10 mg/kg
- minimal effective dose (Mus musculus [8]): 10 mg/kg

- Ki [9]: 5.25 nM
- Ki [10]: 1.45 nM
Structure (SMILES): O=S(=O)(N[C@@H]1CCN(CCCc2noc3cc(F)ccc23)C1)c1ccc(F)c(Cl)c1

- pKb [11]: 9.55
Structure (SMILES): CC1CCN(CC[C@H]2CCCN2S(=O)(=O)c2cccc(O)c2)CC1

- Ki [9]: 1.02 nM
- Ki [10]: 12.9 nM
Structure (SMILES): Cc1cccc(S(=O)(=O)N[C@H]2CCN(CCCc3noc4cc(F)ccc34)C2)c1

- pKb [12]: 8.39
Structure (SMILES): Cn1ccc2cc3c(cc21)CCN3C(=O)Nc1cccnc1

- Ki [10]: 1.7 nM
Structure (SMILES): Cc1cccc(S(=O)(=O)N[C@@H]2CCN(CCCc3noc4cc(F)ccc34)C2)c1

- Ki [9]: 6.46 nM
- Ki [10]: 25.7 nM
Structure (SMILES): O=S(=O)(N[C@H]1CCN(CCCc2noc3cc(F)ccc23)C1)c1ccc(F)c(Cl)c1

- pKb [13]: 8.84
Structure (SMILES): CN(C)CCCN1c2ccccc2Sc2ccc(Cl)cc21
